Experiments:
[1] = Inhibition of c-terminal GFP-tagged human ABCG2 expressed in MDCK2 cells assessed as enhancement of SN-38-induced cytotoxicity incubated for 72 hrs by MTT assay
[2] = Inhibition of c-terminal GFP-tagged human ABCG2 expressed in MDCK2 cells assessed as enhancement of Hoechst 33342-induced cytotoxicity incubated for 72 hrs by MTT assay
[3] = biological target: T1, Broad substrate specificity ATP-binding cassette transporter ABCG2 (Homo sapiens, UniProt Q9UNQ0); experiment: Inhibition of c-terminal GFP-tagged human ABCG2 expressed in MDCK2 cells assessed as enhancement of SN-38-induced cytotoxicity incubated for 72 hrs by MTT assay
T1 sequence (Q9UNQ0 whole entry): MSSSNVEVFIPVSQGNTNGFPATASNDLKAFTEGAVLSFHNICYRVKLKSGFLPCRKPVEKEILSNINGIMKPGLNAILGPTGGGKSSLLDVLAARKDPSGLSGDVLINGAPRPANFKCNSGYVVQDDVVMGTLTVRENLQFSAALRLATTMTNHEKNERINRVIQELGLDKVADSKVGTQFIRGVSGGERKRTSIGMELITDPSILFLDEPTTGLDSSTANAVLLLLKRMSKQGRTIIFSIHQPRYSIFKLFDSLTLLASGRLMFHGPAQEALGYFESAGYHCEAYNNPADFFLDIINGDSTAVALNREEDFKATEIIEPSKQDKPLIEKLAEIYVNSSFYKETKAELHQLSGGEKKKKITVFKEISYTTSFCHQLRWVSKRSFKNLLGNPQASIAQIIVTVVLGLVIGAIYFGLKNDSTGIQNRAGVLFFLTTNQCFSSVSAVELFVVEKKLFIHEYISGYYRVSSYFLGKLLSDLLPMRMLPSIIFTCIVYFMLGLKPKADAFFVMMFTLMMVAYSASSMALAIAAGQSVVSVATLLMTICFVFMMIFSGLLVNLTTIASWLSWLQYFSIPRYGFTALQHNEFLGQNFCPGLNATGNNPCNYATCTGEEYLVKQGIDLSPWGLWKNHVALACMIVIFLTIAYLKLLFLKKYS

[4] = biological target: T1, Broad substrate specificity ATP-binding cassette transporter ABCG2; experiment: Inhibition of c-terminal GFP-tagged human ABCG2 expressed in MDCK2 cells assessed as enhancement of Hoechst 33342-induced cytotoxicity incubated for 72 hrs by MTT assay

Compound	EC50 [1]	EC50 [2]	EC50 [3]	EC50 [4]
N#Cc1ccc(Nc2nc(-c3ccccc3)nc3ccccc23)cc1	0.041 µM	0.053 µM	–	–
O=[N+]([O-])c1cc(Nc2nc(-c3ccccc3)nc3ccccc23)ccc1O	–	–	0.12 µM	0.13 µM

— BindingDB's records for doi:10.1021/acs.jmedchem.6b00330 (University of Bonn, 2016)
